Patent publication EP1769804B1, “hPTH(1-34) for use in preventing or reducing the incidence or severity of vertebral and / or non vertebral fracture in a male human” (priority 1998, dated 2012)
Marks after values point to notes of the source that are not given here.

Experiments:
Ovariectomized Primates [1] = assay: Biomechanical material properties of beam specimens from femur diaphysis; format: in vivo, Macaca fascicularis; conditions: for E (Young's modulus) / u (toughness) / εa / σa: femur diaphysis beam, mean ± SEM
Excerpt: (§1) Biomechanical tests were done on lumbar vertebrae L-3 to L-4, the femur neck, humerus midshaft, and on a cortical bone specimen machined from the femur diaphysis (measures defined in Table 2). Conventional static and dynamic histomorphometry were done (measures described in Table 6) on the humerus midshaft, lumbar vertebra L-2, femoral neck, femur midshaft, the radius midshaft and distal radius. Initial statistical analyses compared all groups to vehicle-treated ovariectomized controls. The data is suitable for additional exploratory analyses to examine dose dependency, effects of withdrawal, interactions between outcomes, and changes in time by methods known to those of skill in the art. All assays were conducted and determined by methods known in the art.

Ovariectomized Primates [2] = assay: Biomechanical measure of strength of femur neck; format: in vivo, Macaca fascicularis; set-up: Fa, Proximal femur neck: unit not given here; conditions: for Fa, Proximal femur neck: mean ± SEM
Excerpt: as §1

Ovariectomized Primates [3] = assay: Biomechanical measures of cortical bone of the humerus midshaft; format: in vivo, Macaca fascicularis; conditions: for Fy / S (stiffness) / t (average cortical thickness): humerus midshaft, mean ± SEM
Excerpt: as §1

[4] = test system: L-5 vertebra from cynomolgus monkeys; assay: QCT and 3D finite element modeling of L-5 vertebra; format: in vivo; conditions: for low BMD, percentage of L5 vertebral volume: 0-300 mg/cc; for low BMD, percentage of L5 vertebral volume / medium BMD, percentage of L5 vertebral volume / high BMD, percentage of L5 vertebral volume / cortical BMD, percentage of L5 vertebral volume: mean±SEM; for medium BMD, percentage of L5 vertebral volume: 300-700 mg/cc; for high BMD, percentage of L5 vertebral volume: 700-1000 mg/cc; for cortical BMD, percentage of L5 vertebral volume: >1000 mg/cc; for vertebral effective strain: finite element model, distributed load of 100 N
Experimental: These studies determined 3D finite element modeling data on vertebra from monkeys of the study dosed with PTH for 18 months. Excised L-5 vertebra in 50% ethanol/saline from the ovariectomized (n=7) and PTH (n=7) groups were serially scanned in 500 µm steps by quantitative computed tomography (QCT, Norland, Ft. Atkinson, WI), using 70x70 µm pixels. Each of the 500 µm cross-sections was analyzed for volumetric bone mineral density (BMD, mg/cc), bone mineral content (BMC, mg), cross-sectional area (X-Area), cancellous bone volume (BV/TV), trabecular thickness (Tb.Th), and connectivity (node density, strut analysis). Pixels in each serial scan were averaged to create 490x490x500 µm voxels. The serial scans were then stacked and a triangular surface mesh generated for each bone using the "marching cubes" algorithm (see e.g. Lorensen and Cline 1987 "Marching cubes, a high resolution 3D surface construction algorithm." Computer Graphics 21, 163-169). A smoothed version of each surface mesh was then used to generate a tetrahedral mesh for 3D finite-element modeling.
Young's modulus for each tetrahedral element was derived from the original voxel densities and material properties from a beam of cortical bone milled from the femoral diaphysis of the monkeys. Each tetrahedral mesh was rotated so that the bottom surface of each vertebra was aligned with a plane. Linear elastic stress analysis was then performed for each L-5 model in which a distributed load of 100 N was applied to the top surface of the centrum, perpendicular to the bottom plane while the bottom surface was fixed in the direction of loading. The resulting axial strain contours were evaluated, as were the BMD distributions, and compared between PTH and ovariectomized. At this resolution, the density of each voxel is dependent on the extent to which each voxel is filled with bone as opposed to soft tissue.

[5] = test system: ovariectomized cynomolgus primates; assay: Bone mass by DXA and pQCT in the primate study; format: in vivo, Macaca fascicularis
Excerpt: (§2) All animals were euthanized after 18 months.

[6] = test system: ovariectomized cynomolgus primates; assay: Serum and urine measures in the primate study; format: in vivo, Macaca fascicularis
Excerpt: as §2

[7] = test system: ovariectomized cynomolgus primates; assay: Iliac biopsy histomorphometry (cancellous bone); format: in vivo, Macaca fascicularis
Excerpt: as §2

[8] = test system: cortical bone of the humerus; assay: Histomorphometry and polarized Fourier transform infrared microscopy of humerus cortical bone; format: in vivo, Macaca fascicularis
Experimental: For certain experimental subjects, cortical bone of the humerus was examined by histomorphometry and by polarized Fourier transform infrared microscopy. The Fourier transform infrared microscopy was conducted by an adaptation of known methods for such microscopy.

post-menopausal women = assay: Clinical trial: number of non-vertebral fractures; format: in vivo, Humans
[9] = test system: ovariectomized cynomolgus monkeys; conditions: cynomolgus monkey, in vivo
Experimental: The live phase of the study used feral, adult (closed growth plates) cynomolgus primates (Macaca fascicularis), weighing 2.77±0.03 kg (mean ± standard error of the mean [SEM]). Monkeys were held in quarantine for 3 months, then started on a diet containing 0.3% calcium, 0.3% phosphate, and 250 IU vitamin D3/100 g diet, and given fluoridated water (1 ppm fluoride) ad libitum. The calcium content corresponded to 1734 mg calcium/2000 calories. After 1 month on the diet, animals were sorted into groups of 21 or 22, sham operated or ovariectomized. Once daily subcutaneous injections of vehicle (sham and ovariectomized controls) or rhPTH(1-34), at 1 µg/kg (PTH1) or 5 µg/kg (PTH5), were started 24 hours after ovariectomy. Animals were treated for either 18 months (PTH1 and PTHS), or for 12 months followed by withdrawal of treatment (PTH1-W and PTH5-W).

[10] = compared to ovariectomized controls
[11] = PTH1-W: withdrawal after 1 µg/kg for 12 months
[12] = PTH5-W: withdrawal after 5 µg/kg for 12 months
[13] = PTH-W, after withdrawal of PTH for 6 months
[14] = PTH for 18 months compared to ovariectomized
[15] = compared to ovariectomized, 24 hours after injection

teriparatide [rhPTH(1-34)]
material properties of beam specimens machined from the femoral diaphysis (Ovariectomized Primates [1]; [10]): did not alter
E (Young's modulus) (Ovariectomized Primates [1]; [11]): 16.6 ± 0.6 Gpa
u (toughness) (Ovariectomized Primates [1]; [11]): 5.3 ± 0.4 mJ/m^3
εa (Ovariectomized Primates [1]; [11]): 0.034 ± 0.002
σa (Ovariectomized Primates [1]; [11]): 214 ± 6 Mpa
E (Young's modulus) (Ovariectomized Primates [1]; PTH1: 1 µg/kg for 18 months): 17.1 ± 0.4 Gpa
u (toughness) (Ovariectomized Primates [1]; PTH1: 1 µg/kg for 18 months): 6.1 ± 0.4 mJ/m^3
εa (Ovariectomized Primates [1]; PTH1: 1 µg/kg for 18 months): 0.036 ± 0.002
σa (Ovariectomized Primates [1]; PTH1: 1 µg/kg for 18 months): 222 ± 4 Mpa
E (Young's modulus) (Ovariectomized Primates [1]; [12]): 15.3 ± 0.6^a Gpa
u (toughness) (Ovariectomized Primates [1]; [12]): 6.1 ± 0.4 mJ/m^3
εa (Ovariectomized Primates [1]; [12]): 0.038 ± 0.002
σa (Ovariectomized Primates [1]; [12]): 208 ± 6 Mpa
E (Young's modulus) (Ovariectomized Primates [1]; PTH5: 5 µg/kg for 18 months): 15.4 ± 0.6^a Gpa
u (toughness) (Ovariectomized Primates [1]; PTH5: 5 µg/kg for 18 months): 5.4 ± 0.4 mJ/m^3
εa (Ovariectomized Primates [1]; PTH5: 5 µg/kg for 18 months): 0.034 ± 0.002
σa (Ovariectomized Primates [1]; PTH5: 5 µg/kg for 18 months): 206 ± 6 Mpa
Fa, Proximal femur neck (Ovariectomized Primates [2]; [11]): 1258 ± 52^a
Fa, Proximal femur neck (Ovariectomized Primates [2]; PTH1: 1 µg/kg for 18 months): 1235 ± 43^a
Fa, Proximal femur neck (Ovariectomized Primates [2]; [12]): 1213 ± 42
Fa, Proximal femur neck (Ovariectomized Primates [2]; PTH5: 5 µg/kg for 18 months): 1362 ± 30^a
improvement of strength in the femur neck (fu) (Ovariectomized Primates [2]; [10]): up to 12%
measures in the cortical diaphysis of the humerus midshaft (Ovariectomized Primates [3]; [10]): did not alter
Fy (Ovariectomized Primates [3]; [11]): 689 ± 23 N
S (stiffness) (Ovariectomized Primates [3]; [11]): 573 ± 20 N/mm
t (average cortical thickness) (Ovariectomized Primates [3]; [11]): 1.66 ± 0.04 mm
Fy (Ovariectomized Primates [3]; PTH1: 1 µg/kg for 18 months): 654 ± 23 N
S (stiffness) (Ovariectomized Primates [3]; PTH1: 1 µg/kg for 18 months): 544 ± 23 N/mm
t (average cortical thickness) (Ovariectomized Primates [3]; PTH1: 1 µg/kg for 18 months): 1.68 ± 0.03 mm
Fy (Ovariectomized Primates [3]; [12]): 707 ± 24 N
S (stiffness) (Ovariectomized Primates [3]; [12]): 573 ± 24 N/mm
t (average cortical thickness) (Ovariectomized Primates [3]; [12]): 1.72 ± 0.05 mm
Fy (Ovariectomized Primates [3]; PTH5: 5 µg/kg for 18 months): 680 ± 15^a N
S (stiffness) (Ovariectomized Primates [3]; PTH5: 5 µg/kg for 18 months): 548 ± 18 N/mm
t (average cortical thickness) (Ovariectomized Primates [3]; PTH5: 5 µg/kg for 18 months): 1.80 ± 0.04^a mm
low BMD, percentage of L5 vertebral volume ([4]; PTH for 18 months): 17.7±1.6 %
low BMD, percentage of L5 vertebral volume [4, 13]: 22.4±1.3 %
medium BMD, percentage of L5 vertebral volume ([4]; PTH for 18 months): 58.9±1.9 %
medium BMD, percentage of L5 vertebral volume [4, 13]: 49.7±1.2%
high BMD, percentage of L5 vertebral volume ([4]; PTH for 18 months): 22.8±2.7%
high BMD, percentage of L5 vertebral volume [4, 13]: 27.0±1.6 %
cortical BMD, percentage of L5 vertebral volume ([4]; PTH for 18 months): 0.6±0.3%
cortical BMD, percentage of L5 vertebral volume [4, 13]: 0.8±0.2%
BMC at the midlevel of the L5 vertebra ([4]; PTH for 18 months): 47.4 ± 1.5 mg
greater Tb.N, centrum [4, 14]: 37%
greater node density (node/tissue volume) [4, 14]: 140%
greater node-to-node struts [4, 14]: 286%
increase in BMC, middle 500 µm slice of L-5 [4, 14]: 27%
increase in BMD, middle 500 µm slice of L-5 [4, 14]: 21%
increase in BV/TV, centrum [4, 14]: 73%
increase in Tb.Th, centrum [4, 14]: 30%
reduction of average mechanical strain in the vertebra ([4]; PTH treatment, vs OVX): 36%
BMC at the midlevel of the L5 vertebra [4, 13]: 44.2 ± 1.2 mg
average mechanical strain in the vertebra below OVX ([4]; after withdrawal of PTH): 23%
vertebral effective strain ([4]; PTH for 18 months): 447±36 ustrain
vertebral effective strain [4, 13]: 539±34 ustrain
increase of whole body bone mineral content (BMC) compared to baseline ([5]; 18 months, DXA): up to 6%
overall skeletal bone mass, expressed as total body BMC ([5]; Fig. 1): increased significantly
proximal tibia BMC and BMD [5, 10]: increased BMC and BMD
BMD of the midshaft or distal radius ([5]; pQCT): did not alter
increase of cross-sectional area of the midshaft ([5]; radius midshaft, PTH5 group): 7%
serum total alkaline phosphatase (ALP) and osteocalcin ([6]; bone formation markers): restored levels back to sham values
1,25-dihydroxyvitamin D [6, 15]: higher
endogenous PTH [6, 15]: lower
serum phosphate [6, 15]: lower
urinary cAMP [6, 15]: higher
Urinary C-telopeptide (CrossLaps) excretion ([6]; marker of bone resorption, compared to ovariectomized controls): not altered
mineralization, activation frequency, or remodeling periods ([7]; iliac biopsy): did not affect
cancellous bone area ([7]; iliac biopsy at 15 months, compared to ovariectomized): increased cancellous bone area
bone quality (crystallites) [8]: improved bone quality by replacing old bone (large crystallites) with young bone
number of non-vertebral fractures, Ankle (post-menopausal women; PTH-20 (N=541)): 2
number of non-vertebral fractures, Foot (post-menopausal women; PTH-20 (N=541)): 1
number of non-vertebral fractures, Hip (post-menopausal women; PTH-20 (N=541)): 2
number of non-vertebral fractures, Humerus (post-menopausal women; PTH-20 (N=541)): 4
number of non-vertebral fractures, Other (post-menopausal women; PTH-20 (N=541)): 14
number of non-vertebral fractures, Pelvis (post-menopausal women; PTH-20 (N=541)): 1
number of non-vertebral fractures, Radius (post-menopausal women; PTH-20 (N=541)): 7
number of non-vertebral fractures, Ribs (post-menopausal women; PTH-20 (N=541)): 5
number of non-vertebral fractures, Total (post-menopausal women; PTH-20 (N=541)): 34
number of non-vertebral fractures, Total w/o "Other" (post-menopausal women; PTH-20 (N=541)): 21
number of non-vertebral fractures, Ankle (post-menopausal women; PTH-40 (N=552)): 2
number of non-vertebral fractures, Foot (post-menopausal women; PTH-40 (N=552)): 4
number of non-vertebral fractures, Hip (post-menopausal women; PTH-40 (N=552)): 3
number of non-vertebral fractures, Humerus (post-menopausal women; PTH-40 (N=552)): 3
number of non-vertebral fractures, Other (post-menopausal women; PTH-40 (N=552)): 9
number of non-vertebral fractures, Pelvis (post-menopausal women; PTH-40 (N=552)): 0
number of non-vertebral fractures, Radius (post-menopausal women; PTH-40 (N=552)): 10
number of non-vertebral fractures, Ribs (post-menopausal women; PTH-40 (N=552)): 5
number of non-vertebral fractures, Total (post-menopausal women; PTH-40 (N=552)): 32
number of non-vertebral fractures, Total w/o "Other" (post-menopausal women; PTH-40 (N=552)): 24
sustained hypercalcemia or kidney pathology [9]: no evidence of sustained hypercalcemia or kidney pathology
